Laboratory results published in patent US9034863B2, “Compositions and methods for inhibiting entry of a hepatic virus” (The Board of Trustees of the University of Illinois, priority 2008, dated 2015).

Experiments:
Type in all cases: cell-based, Hepatitis C virus (HCV)
[1] = test system: HCVcc; assay: HCV foci reduction assay, acute HCVcc infection of Huh7 cells; details: added pre-, co- or post-infection
[2] = test system: HCV genotype 1b subgenomic replicon; assay: HCV sg1b replicon RNA replication in Huh7 cells, RT-qPCR; details: 72 hours post-treatment
[3] = test system: HCV genotype 2a subgenomic replicon; assay: HCV sg2a replicon RNA replication in Huh7 cells, RT-qPCR; details: 72 hours post-treatment
Excerpt: Huh7 cells, also known as Huh7/scr cells, are well-known in the art (Zhong, et al. (2005) Proc. Natl. Acad. Sci. USA 102, 9294-99; Gastaminza, et al. (2006) J. Virol. 80:11074-81; Zhong, et al. (2006) J. Virol. 80:11082-93; Sainz et al. (2009) PLoS ONE 4:e6561). […] The HCV sg2a replicon was established as previously described (Uprichard, et al. (2006) Virol. J. 3:89). Briefly the HCV genotype 2a subgenomic replicon RNA (psgJFH1; Kato, et al. (2003) Gastroenterology 125:1808-17) was XbaI linearized, in vitro transcribed using […] T7 (Ambion, Austin, Tex.) and transfected into cells using a modified electroporation protocol (Krieger, et al. (2001) J. Virol. 75(10):4614-24). All cells were cultured in complete Dulbecco's modified Eagle's medium (cDMEM) (Hyclone, Logan, Utah) supplemented with 10% fetal bovine serum (FBS) (Hyclone), 100 units/ml penicillin, […] streptomycin, and 2 mM L-glutamine (Gibco Invitrogen, Carlsbad, Calif.) and 500 μg/ml geneticin ((Invitrogen) for HCV replicon cells only).
(§1) Total cellular RNA was purified using an ABI PRISM™ 6100 Nucleic Acid PrepStation (Applied Biosystems), as per the manufacturer's instructions. […] HCV JFH-1 and human GAPDH RNA transcript levels were determined relative to a standard curve derived from serial dilutions of plasmid containing the JFH-1 HCV cDNA or the human GAPDH coding sequence, respectively. […]

[4] = test system: HCV-JFH-1; assay: Chronic HCV-JFH-1 infection of Huh7-1 cells, inhibitor combinations, RT-qPCR 24-96 h (FIG. 3-5); details: for reduction of HCV levels (FIG. 3): PI 200 nM; for reduction of HCV levels (FIG. 3) / decrease in intracellular HCV load (FIG. 4B): IFN-α 100 U/ml; for decrease in intracellular HCV load (FIG. 4B): ferristatin 50 μM
Description: RT-qPCR analysis of intracellular HCV RNA levels in Huh7 cultures mock-treated, treated with ezetimibe (30 μM), PI (200 nM), IFN-α (100 U/ml), or indicated combinations thereof (n=3). Data presented are representative of multiple independent experiments.
FIG. 4A, Chronically infected Huh7-1 cell cultures (n=3) treated with ezetimibe (E), naringenin (N), interferon α (I), or combinations thereof, were harvested at 24, 48, 72 or 96 hours post-treatment, intracellular HCV levels were quantified by RT-qPCR, and are presented as HCV copies/μg RNA. FIG. 4B, Chronically infected Huh7-1 cell cultures (n=3) treated with ezetimibe (E), ferristatin (T), interferon α (I), or combinations thereof, were harvested at 24, 48, 72 or 96 hours post-treatment, intracellular HCV levels were quantified by RT-qPCR, and are presented as HCV copies/μg RNA.
Shown are the results of RT-qPCR analysis of intracellular HCV RNA levels in Huh7 cultures mock-treated, treated with ezetimibe (30 μM), polymerase inhibitor, RG7128 (1 μM), or a combination thereof (n=3).
For experiments analyzing the activity of ezetimibe in combination with a protease inhibitor, Huh7-1 cells were infected with HCV-JFH-1 and allowed to reach steady state levels of infection. The HCV-infected cells were seeded in a 96-well plate and treated with the following: medium alone, 30 μM ezetimibe, 200 nM ITMN5537, 100 μ/ml IFN-α, and combinations of the above drugs at the specified concentrations. Medium and drugs were replaced every 24 hours. Triplicate wells were harvested at 24, 48, 72 or 96 hours post-treatment, in 200 μl/well of 1×ABI lysis buffer and stored at −80° C. until RNA extraction.
Therefore, the therapeutic potential of an IFN-free antiviral cocktail was also investigated, using ezetimibe in combination with other direct acting inhibitors of HCV amplification, specifically an inhibitor of the HCV NS3/4A protease (ITMN 5537; Intermune, Brisbane, Calif.). Huh7-1 cells were infected with HCV-JFH-1 and allowed to reach steady state levels of infection. Cells were monotreated with protease inhibitor (PI) or ezetimibe or IFN alone or treated with combinations of PI+ezetimibe or PI+IFN or IFN+ezetimibe or a combination of all three inhibitors. Samples were harvested at 24, 48, 72 or 96 hours post-treatment, the intracellular RNA was extracted and RT-qPCR performed to quantify HCV copies.
Thus, parallel cultures of chronically infected Huh7-1 cells were established and subsequently treated with ezetimibe, naringenin or IFN-α, either alone or in combination. Treatments were replenished every 24 hours. Triplicate cultures of each treatment condition were harvested at 24, 48, 72 or 96 hours post-treatment and intracellular HCV levels were quantified by RT-qPCR (FIG. 4A). […] Thus, no evidence of synergy was observed when IFN-α was combined with an egress inhibitor that only blocks cell-free spread.
As an alternative method of determining the therapeutic importance of inhibiting HCV cell-to-cell spread, an inhibitor to TfR1 was used. TfR1 has also been identified as another host cell factor that is involved in cell-free entry of HCV into cells, but is not required for cell-to-cell-mediated HCV entry. Thus, unlike ezetimibe which inhibits both cell-free and cell-to-cell HCV spread, the TfR1 inhibitor, ferristatin, only blocks cell-free virus spread. Again, chronically infected Huh7-1 cell cultures were established and treated with ezetimibe (30 μM), ferristatin (50 μM), or IFN-α (100 U/ml), either alone or in combination and treatments were replenished every 24 hours. Intracellular HCV copies were quantified from triplicate cultures by RT-qPCR at 24, 48, 72 or 96 hours post-treatment (FIG. 4B).
Huh7-1 cells were infected with HCV-JFH-1 and allowed to reach steady state levels of infection. Cells were monotreated with HCV polymerase inhibitor RG7128 (1 μM) or ezetimibe (30 μM) alone or treated with a combination of RG7128 and ezetimibe. […]

[5] = test system: HCVcc JFH-1; assay: Chronic HCVcc infection in growing Huh7 cells, long-term treatment, RT-qPCR (FIG. 2)
Description: Cultures of growing Huh7 cells were inoculated with HCVcc JFH-1 at an MOT of 0.01 FFU/cell. Infected cultures were maintained for an additional 10 days to allow HCV RNA to reach steady-state levels. FIG. 2A, Cultures were mock treated, treated with ezetimibe alone (30 μM), IFN-α (100 U/ml) alone, or ezetimibe (30 μM) plus IFN-α (100 U/ml) in combination. Treatments were maintained as cultures were passaged. FIG. 2B, After 70 days IFN-α or combination ezetimibe plus IFN-α treatment, treatment was either continued (open shapes) or discontinued (filled shapes). […] Results are graphed as means±s.e.m. for triplicate samples. The data presented are representative of two independent experiments.
For experiments in growing cells, Huh7 cells seeded at 1×10^6 cells in a T75 cell culture flask (Corning) were infected with JFH-1 HCVcc at a MOI of 0.01 FFU/cell and subsequently cultured for 10 days to allow HCV RNA to reach steady-state levels. On day 10 post-infection, cells were split 1:4 and re-plated into T25 culture flasks (Corning). Twenty four hours post seeding, individual flasks were mock-treated with cDMEM or treated with cDMEM containing IFN-α (100 U/ml), ezetimibe (30 μM) or a combination of both IFN-α (100 U/ml) and ezetimibe (30 μM). Throughout the course of the experiment, fresh media with treatments was replenished every two days and cells were trypsinized just before reaching confluence and re-plated at a dilution of 1:3 to maintain active cell growth. […]
as §1
To confirm HCV clearance, drug treatments were subsequently discontinued on day 70 and HCV RNA levels were monitored for an additional 30 days.

## CC[C@H](C)C(=O)O[C@H]1C[C@@H](C)C=C2C=C[C@H](C)[C@H](CC[C@@H]3C[C@@H](O)CC(=O)O3)[C@H]21 [Lovastatin]
[1]
  inhibition of HCVcc foci formation: had no affect
[2]
  reduction of sg1b RNA levels: 22 fold
[3]
  sg2a HCV RNA levels: had no affect

## CC(C)(C)OC(=O)N[C@H]1CCCCC/C=C\[C@@H]2C[C@@]2(C(=O)NS(=O)(=O)C2(C)CC2)NC(=O)[C@@H]2C[C@@H](OC(=O)N3Cc4cccc(F)c4C3)CN2C1=O [PI]
[4]; ezetimibe 30 μM
  reduction of HCV levels (FIG. 3): less than a log

## CC(C)C(=O)OC[C@H]1O[C@@H](n2ccc(N)nc2=O)[C@](C)(F)[C@@H]1OC(=O)C(C)C [RG7128]
[4]; RG7128 1 μM, ezetimibe 30 μM, normalized to Mock
  reduction of HCV levels (FIG. 5): less than a log

## Cc1[n-]n(-c2ccc(S(=O)(=O)O)cc2)c(=O)c1N=Nc1ccc(-c2ccc(N=Nc3ccc4c(S(=O)(=O)O)cc(S(=O)(=O)O)c(N)c4c3[O-])c([O-])c2)cc1[O-].[Cu+2].[Cu+2] [ferristatin]
[4]; ezetimibe 30 μM
  decrease in intracellular HCV load (FIG. 4B): neither ezetimibe nor ferristatin alone reduced intracellular HCV load

## IFN-α
[5]; by day 32 post-treatment vs mock, IFN-α 100 U/ml, ezetimibe 30 μM
  decrease in intracellular HCV RNA levels: ~2 logs
[5]; discontinued on day 70, monitored 30 days
  rebound in HCV RNA after treatment discontinued: immediate rebound
[4]; ezetimibe 30 μM
  reduction of HCV levels (FIG. 3): a log
  decrease in intracellular HCV load (FIG. 4B): a log decrease
[4]; ezetimibe, naringenin, IFN-α alone or in combination
  reduction of HCV copies (FIG. 4A): a log decrease
